Assays:
Carbonic anhydrase 3 = Carbonic anhydrase 3 (Homo sapiens, UniProt P07451); test: Inhibition of human carbonic anhydrase 3 preincubated for 15 mins by CO2 hydration stopped-flow assay
Carbonic anhydrase 6 = Carbonic anhydrase 6 (Homo sapiens, UniProt P23280); test: Inhibition of human carbonic anhydrase 6 preincubated for 15 mins by CO2 hydration stopped-flow assay
Carbonic anhydrase 9 = Carbonic anhydrase 9 (Homo sapiens, UniProt Q16790); test: Inhibition of human carbonic anhydrase 9 preincubated for 15 mins by CO2 hydration stopped-flow assay
[1] = target: Carbonic anhydrase 5B, mitochondrial (Homo sapiens, UniProt Q9Y2D0)
Sequence of Carbonic anhydrase 5B, mitochondrial (Q9Y2D0 whole entry): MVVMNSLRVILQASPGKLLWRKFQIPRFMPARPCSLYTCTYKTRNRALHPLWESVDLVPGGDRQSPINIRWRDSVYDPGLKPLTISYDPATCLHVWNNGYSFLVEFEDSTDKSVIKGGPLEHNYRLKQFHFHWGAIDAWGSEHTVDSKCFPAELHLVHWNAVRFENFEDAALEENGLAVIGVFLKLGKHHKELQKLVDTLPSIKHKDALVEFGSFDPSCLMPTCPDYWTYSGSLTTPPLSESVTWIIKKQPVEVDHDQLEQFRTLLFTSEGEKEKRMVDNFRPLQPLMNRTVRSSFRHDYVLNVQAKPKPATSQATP
Description: Inhibition of human carbonic anhydrase 5B preincubated for 15 mins by CO2 hydration stopped-flow assay

Sequence of Carbonic anhydrase 3 (P07451 whole entry): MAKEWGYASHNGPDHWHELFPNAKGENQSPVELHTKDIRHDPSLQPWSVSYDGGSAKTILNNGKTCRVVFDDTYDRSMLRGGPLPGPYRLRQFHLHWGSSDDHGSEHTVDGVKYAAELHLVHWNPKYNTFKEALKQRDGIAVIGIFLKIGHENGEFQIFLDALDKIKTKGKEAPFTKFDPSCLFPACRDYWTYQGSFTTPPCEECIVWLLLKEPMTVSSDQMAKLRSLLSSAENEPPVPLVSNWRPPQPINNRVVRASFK
Sequence of Carbonic anhydrase 6 (P23280 whole entry): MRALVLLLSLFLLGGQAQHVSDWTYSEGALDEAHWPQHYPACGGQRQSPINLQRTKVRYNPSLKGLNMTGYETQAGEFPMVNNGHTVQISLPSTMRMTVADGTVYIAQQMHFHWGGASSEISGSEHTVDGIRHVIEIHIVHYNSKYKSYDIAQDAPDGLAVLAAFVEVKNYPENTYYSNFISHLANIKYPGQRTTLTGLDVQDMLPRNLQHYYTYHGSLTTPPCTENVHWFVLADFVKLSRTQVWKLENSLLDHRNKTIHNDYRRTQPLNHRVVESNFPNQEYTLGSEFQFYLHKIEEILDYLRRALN

Row | Structure (SMILES) | Ki (Carbonic anhydrase 3) | Ki (Carbonic anhydrase 6) | Ki (Carbonic anhydrase 9) | Ki [1]
1 | O=C(/C=C/c1ccc(O)cc1)C[C@@H]1O[C@H](CO)[C@@H](O)[C@H](O)[C@H]1O | > 100 µM | > 100 µM | 8.2 µM | > 100 µM
2 | CC(=O)OC[C@H]1O[C@@H](CC(=O)/C=C/c2ccc(O)cc2)[C@H](OC(C)=O)[C@@H](OC(C)=O)[C@@H]1OC(C)=O | > 100 µM | – | 5.9 µM | –
3 | CC(=O)OC[C@H]1O[C@@H](CC(=O)/C=C/c2cccc(O)c2)[C@H](OC(C)=O)[C@@H](OC(C)=O)[C@H]1OC(C)=O | > 100 µM | – | 3.3 µM | –
4 | CC(=O)OC[C@H]1O[C@@H](CC(=O)/C=C/c2cccc(O)c2)[C@H](OC(C)=O)[C@@H](OC(C)=O)[C@@H]1OC(C)=O | > 100 µM | – | 5.2 µM | –
5 | CC(=O)OC[C@H]1O[C@@H](CC(=O)/C=C/c2ccc(O)cc2)[C@H](OC(C)=O)[C@@H](OC(C)=O)[C@H]1OC(C)=O | > 100 µM | – | 2.9 µM | –

Other lines, results leading:

Row | Ki (Carbonic anhydrase 3) | Ki (Carbonic anhydrase 6) | Ki (Carbonic anhydrase 9) | Ki [1] | Structure (SMILES)
6 | > 100 µM | – | 9.2 µM | > 100 µM | O=C(/C=C/c1cccc(O)c1)C[C@@H]1O[C@H](CO)[C@H](O)[C@H](O)[C@H]1O
7 | > 100 µM | – | 4.5 µM | > 100 µM | O=C(/C=C/c1cccc(O)c1)C[C@@H]1O[C@H](CO)[C@@H](O)[C@H](O)[C@H]1O
8 | 8.4 µM | > 100 µM | 8.2 µM | > 100 µM | O=C(/C=C/c1ccc(O)cc1)C[C@@H]1O[C@H](CO)[C@H](O)[C@H](O)[C@H]1O
